Consider 21 compounds from article PMC8042770, “Odorant Receptors for Detecting Flowering Plant Cues Are Functionally Conserved across Moths and Butterflies” (Molecular Biology and Evolution, 2020).

What is called EC50 is the concentration giving half of the maximal effect.

One test has as its target HarmOR59 (Helicoverpa armigera, UniProt A0A7T3KAU6). Kind of test: Xenopus oocyte two-electrode voltage clamp, HarmOR59 + Orco. Format: cell-based. How it is done:
(§1) In order to expand our analysis on the response properties of HarmORs, we conducted dose–response analyses for the 28 functional HarmORs. […] Six HarmORs (OR3, 22, 48, 50, 56, and 66) could not be activated by any ligand at 10^−5 M. For the other 22 HarmORs, dose–response curves were generated and EC50 values of their major ligands were calculated (fig. 2A and supplementary table S2, Supplementary Material online). The HarmOR repertoire was highly efficient in terpene detection, since the lowest EC50 values were obtained for such compounds. Many of these terpenes have been proposed to be defensive chemicals of plants. […] DMNT is also one of the oviposition deterring compounds found in larval frass of some Lepidoptera species such as S. littoralis ([Anderson et al. 1993]).
(§2) Functional characterization of individual ORs was performed by heterologous expression in Xenopus oocytes combined with a two-electrode voltage-clamp system ([Wang et al. 2010]). Briefly, the full-length gene of each OR and Orco were subcloned into the eukaryotic expression vector pT7TS. cRNAs were generated from linearized expression vectors using the mMESSAGE mMACHINE T7 kit (Ambion, Austin, TX). Then, the cRNA mixture of ORx and Orco (27.6 ng each) was injected (Nanoliter 2010, WPI Inc., Sarasota, FL) into oocytes (stage V–VII). The respective Orcos of different species were used for functional studies of OR42 orthologs except for the four butterfly species (V. tameamea, P. xuthus, D. plexippus, and P. rapae), in which we used the Orco from P. xuthus. After incubation in nutrient solution at 18 °C for 3–5 days, the response profile of each oocyte to multiple plant odorants was recorded via a two-electrode voltage clamp (OC-725C oocyte clamp, Warner Instruments, Hamden, CT) at a holding potential of −80 mV. Data were acquired by using a Digidata 1440 A and were analyzed by pCLAMP 10.2 software (Axon Instruments Inc., Union City, CA).
(§3) Stock solutions of each odorant were prepared at 1 M using DMSO as a solvent, and each odorant was diluted in 1× Ringer’s solution to the indicated concentrations for electrophysiological recording. For functional screening of each HarmOR, a panel of 67 odorants belonging to three types of chemical classes: terpenes, aromatics, and aliphatics (short-chain fatty acid) were used (supplementary table S1, Supplementary Material online). For functional studies of OR42 orthologs from different species, six odorants including PAA, benzaldehyde, (E)-2-hexen-1-al, cinnamaldehyde, 2-phenylethanol, and heptanal were used.
Background: In two-electrode clamp one electrode senses voltage and the other passes current.

The target in a further test is HarmOR42 (Helicoverpa armigera, UniProt A0A7T3KAF6). Kind of test: Xenopus oocyte two-electrode voltage clamp, HarmOR42 + Orco. The conditions noted are these: 67 odorants at 10^−4 M. The format is cell-based.
Chain of HarmOR42 (A0A7T3KAF6 entry or part of it): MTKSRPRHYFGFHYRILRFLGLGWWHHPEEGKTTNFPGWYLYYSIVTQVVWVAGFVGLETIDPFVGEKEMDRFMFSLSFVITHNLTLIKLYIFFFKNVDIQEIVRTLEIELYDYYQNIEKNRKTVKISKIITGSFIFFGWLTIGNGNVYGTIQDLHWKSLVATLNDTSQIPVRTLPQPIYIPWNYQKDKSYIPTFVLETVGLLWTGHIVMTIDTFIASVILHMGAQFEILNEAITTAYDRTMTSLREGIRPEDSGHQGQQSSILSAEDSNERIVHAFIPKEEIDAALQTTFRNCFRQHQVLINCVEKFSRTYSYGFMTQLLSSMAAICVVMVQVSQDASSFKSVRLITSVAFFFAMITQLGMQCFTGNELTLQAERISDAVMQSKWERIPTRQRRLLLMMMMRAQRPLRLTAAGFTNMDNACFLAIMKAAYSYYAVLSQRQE
Source text: In preliminary screening, we used a high dosage (10^−4 M) of odorants. […] Most functional ORs responded robustly to multiple odorants. The strongest response (up to ∼6,000 nanoampere, nA) we detected was that of HarmOR42 toward the aromatic compound PAA. Further, the response profiles of the 28 HarmORs appeared to be highly differentiated, with no apparent overlap in their tuning spectra (with the exception of HarmOR12 and 36) according to functional cluster analysis (fig. 1A).
as §1, §2, §3

A further test concerns HarmOR repertoire. Kind of test: Responses of the 28 functional HarmORs across odorant doses (PCA of oocyte currents). The format is cell-based, Helicoverpa armigera. The conditions noted are these: odorant 10^−7 M.
Source text: Vectors quantifying the responses of the 28 ORs to each odorant were projected onto a 3D landscape. This 3D representation captured 78.34% (10^−4 M), 65.11% (10^−5 M), 68.89% (10^−6 M), and 84.52% (10^−7 M) of the variation in the original 28D data set across different odorant concentrations. […] In addition, the capacity of the H. armigera odor space was highly dependent on odorant concentration. As the concentrations of odorants decreased, their positions in the odor space converged, with the ability to discriminate different odorants diminishing.
as §2, §3
Graphs and data statistics of OR response spectra, dose responses, EAG, and behavioral experiments were generated by Prism 7 (GraphPad Software, La Jolla, CA). A heat map was generated in Excel 2010 (Microsoft Corporation, WA). […] For tuning breadth analysis, the kurtosis values (K) were calculated by SPSS 22 (SPSS Inc., Chicago, IL) and were used to define the tuning spectra width, where smaller K values represent broader tuning spectra (fig. 1B). […]

Test [1] relates to H. armigera moth antennae. In words: Electroantennography (EAG), wild-type vs HarmOR42 knock-out moths. The settings on record: single odorants, 1 μg. The format is in vivo, Helicoverpa armigera. The source says:
We next conducted a loss-of-function study by generating a HarmOR42-lacking H. armigera strain by CRISPR/Cas9 targeting the first coding exon. Homozygous mutants were obtained with a large segment deletion of 203 bp and a 6-bp nonhomologous insertion in the genome (fig. 6B), introducing a premature stop codon in the coding sequence. […] The most likely hypothesis is that HarmOR42 is not the major receptor for sensing this compound in H. armigera. As a control, we tested the response of male moths to the sex pheromone component Z11-16: Ald that is not a ligand of HarmOR42. As expected, we observed no difference between the EAG responses of mutant and wild-type moths to this compound.
The antennae of 2- to 3-day-old virgin male and female moths were cut at the base of the flagellum. After removing the tip, one antenna was inserted between two glass electrodes filled with 0.1 M KCl solution. In each test, a 10-μl solution of each odorant was added onto a piece of filter paper (0.5 cm × 0.5 cm) and then inserted into a Pasteur pipette. About 100 ng/μl stock solutions of individual odorants and different doses of the mixture IAC were prepared with paraffin oil. A continuous airflow of 30 ml/s was produced by a stimulus controller (CS-55, Syntech, Kirchzarten, Germany). Odor stimulation was controlled by a puff of purified air (0.2 s at 10 ml/s airflow) from the CS-55. EAG signals were amplified with a 10× AC/DC headstage preamplifier (Syntech) and further acquired with an Intelligent Data Acquisition Controller (IDAC-4-USB, Syntech) ([Cao et al. 2016]). The signals were recorded, monitored, and analyzed using Syntech EAG-software (Syntech, Germany). The EAG response values for each compound were calculated by subtracting the value of the same antennae corresponding to a solvent blank of paraffin oil.

The next test deals with HarmOR36 (Helicoverpa armigera, UniProt A0A7T3N0K7). Kind of test: Xenopus oocyte two-electrode voltage clamp, HarmOR36 + Orco. Format: cell-based. The settings on record: dose response in oocytes, unit M. The procedure:
as §1, §2, §3

A further test addresses HarmOR52 (Helicoverpa armigera, UniProt A0A7T3KAH2). In words: Xenopus oocyte two-electrode voltage clamp, HarmOR52 + Orco. Format: cell-based. The procedure: as §1, §2, §3
A further test addresses HarmOR12 (Helicoverpa armigera, UniProt A0A172QGF5). In words: Xenopus oocyte two-electrode voltage clamp, HarmOR12 + Orco. Format: cell-based.
Source text: (§4) In order to expand our analysis on the response properties of HarmORs, we conducted dose–response analyses for the 28 functional HarmORs. […] Many of these terpenes have been proposed to be defensive chemicals of plants.
(§5) Briefly, the full-length gene of each OR and Orco were subcloned into the eukaryotic expression vector pT7TS. cRNAs were generated from linearized expression vectors using the mMESSAGE mMACHINE T7 kit (Ambion, Austin, TX). […] The respective Orcos of different species were used for functional studies of OR42 orthologs except for the four butterfly species (V. tameamea, P. xuthus, D. plexippus, and P. rapae), in which we used the Orco from P. xuthus.
as §3

A further test addresses HarmOR31 (Helicoverpa armigera, UniProt A0A7T3N2E9). In words: Xenopus oocyte two-electrode voltage clamp, HarmOR31 + Orco. The settings on record: HarmOR31; dose response in oocytes; unit M; read-out: EC50. Format: cell-based.
Source text: as §4, §5, §3

Another test addresses T1, HarmOR40 (Helicoverpa armigera, UniProt A0A7T3KBF4).
T1 sequence (A0A7T3KBF4 1-401): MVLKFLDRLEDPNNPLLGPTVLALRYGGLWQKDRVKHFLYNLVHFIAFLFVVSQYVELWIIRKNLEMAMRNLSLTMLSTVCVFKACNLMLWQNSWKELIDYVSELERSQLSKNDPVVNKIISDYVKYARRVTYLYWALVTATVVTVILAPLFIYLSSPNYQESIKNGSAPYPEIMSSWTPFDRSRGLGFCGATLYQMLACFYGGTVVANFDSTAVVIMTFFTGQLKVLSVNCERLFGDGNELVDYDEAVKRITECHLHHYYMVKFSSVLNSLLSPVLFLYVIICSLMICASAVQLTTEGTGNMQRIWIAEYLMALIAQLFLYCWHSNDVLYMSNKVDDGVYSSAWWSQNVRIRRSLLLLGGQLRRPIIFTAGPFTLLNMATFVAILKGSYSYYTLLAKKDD
In words: Xenopus oocyte two-electrode voltage clamp, HarmOR40 + Orco. The format is cell-based. How it is done:
as §1, §2, §3

Another test concerns the target HarmOR23 (Helicoverpa armigera, UniProt A0A7T3KAE3). In words: Xenopus oocyte two-electrode voltage clamp, HarmOR23 + Orco. Format: cell-based. The conditions noted are these: dose response in oocytes, unit M printed in text only. How it is done: as §1
as §2, with “CA). […]” for “CA).”

For the next test, the target named is T2, HarmOR27 (Helicoverpa armigera, UniProt A0A7T3KAG1).
T2 sequence (A0A7T3KAG1 1-426): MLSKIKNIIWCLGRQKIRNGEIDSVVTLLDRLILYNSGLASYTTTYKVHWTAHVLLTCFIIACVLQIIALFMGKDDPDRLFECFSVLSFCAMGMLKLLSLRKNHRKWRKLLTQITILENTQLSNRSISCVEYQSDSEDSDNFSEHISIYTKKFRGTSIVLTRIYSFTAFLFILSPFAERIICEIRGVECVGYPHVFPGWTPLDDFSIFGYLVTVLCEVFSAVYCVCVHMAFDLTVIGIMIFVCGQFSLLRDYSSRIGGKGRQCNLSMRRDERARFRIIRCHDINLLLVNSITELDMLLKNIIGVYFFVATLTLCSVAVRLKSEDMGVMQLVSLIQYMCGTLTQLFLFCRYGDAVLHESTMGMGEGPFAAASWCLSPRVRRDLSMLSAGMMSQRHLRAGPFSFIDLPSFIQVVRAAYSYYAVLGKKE
In words: Xenopus oocyte two-electrode voltage clamp, HarmOR27 + Orco. The settings on record: HarmOR27; dose response in oocytes; unit M; read-out: EC50. Format: cell-based. How it is done: as §1, §2, §3

[2] abbreviates: HarmOR59, dose response in oocytes, unit M, read-out: EC50.
Setting [3] is: HarmOR12, dose response in oocytes, unit M, read-out: EC50.
Setting [4] is: HarmOR40, dose response in oocytes, unit M printed in text only, read-out: EC50.

Like-named read-outs stand apart in the source and are kept apart here.

Chain of HarmOR52 (A0A7T3KAH2 entry or part of it): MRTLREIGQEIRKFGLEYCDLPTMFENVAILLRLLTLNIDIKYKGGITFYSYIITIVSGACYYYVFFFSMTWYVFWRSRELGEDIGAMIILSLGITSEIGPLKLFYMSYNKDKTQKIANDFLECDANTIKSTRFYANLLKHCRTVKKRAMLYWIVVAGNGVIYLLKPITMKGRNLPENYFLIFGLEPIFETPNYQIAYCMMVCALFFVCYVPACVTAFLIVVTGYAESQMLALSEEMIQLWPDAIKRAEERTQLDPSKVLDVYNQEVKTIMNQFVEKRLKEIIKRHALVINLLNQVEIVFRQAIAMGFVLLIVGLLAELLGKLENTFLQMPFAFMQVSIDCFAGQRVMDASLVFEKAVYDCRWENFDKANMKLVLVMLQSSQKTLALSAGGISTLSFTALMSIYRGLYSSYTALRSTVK
Chain of HarmOR59 (A0A7T3KAU6 entry or part of it): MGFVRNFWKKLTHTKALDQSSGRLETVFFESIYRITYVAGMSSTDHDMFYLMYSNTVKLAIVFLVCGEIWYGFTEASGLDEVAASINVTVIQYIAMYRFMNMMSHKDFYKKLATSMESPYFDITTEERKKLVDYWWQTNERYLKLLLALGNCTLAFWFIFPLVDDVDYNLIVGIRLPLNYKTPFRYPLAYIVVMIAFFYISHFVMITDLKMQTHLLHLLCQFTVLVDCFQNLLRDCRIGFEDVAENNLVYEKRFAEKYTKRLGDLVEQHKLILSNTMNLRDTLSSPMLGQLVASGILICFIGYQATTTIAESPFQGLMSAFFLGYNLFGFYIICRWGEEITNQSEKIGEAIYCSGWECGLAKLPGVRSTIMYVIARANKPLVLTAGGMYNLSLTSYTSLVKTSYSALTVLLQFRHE
Chain of HarmOR23 (A0A7T3KAE3 entry or part of it): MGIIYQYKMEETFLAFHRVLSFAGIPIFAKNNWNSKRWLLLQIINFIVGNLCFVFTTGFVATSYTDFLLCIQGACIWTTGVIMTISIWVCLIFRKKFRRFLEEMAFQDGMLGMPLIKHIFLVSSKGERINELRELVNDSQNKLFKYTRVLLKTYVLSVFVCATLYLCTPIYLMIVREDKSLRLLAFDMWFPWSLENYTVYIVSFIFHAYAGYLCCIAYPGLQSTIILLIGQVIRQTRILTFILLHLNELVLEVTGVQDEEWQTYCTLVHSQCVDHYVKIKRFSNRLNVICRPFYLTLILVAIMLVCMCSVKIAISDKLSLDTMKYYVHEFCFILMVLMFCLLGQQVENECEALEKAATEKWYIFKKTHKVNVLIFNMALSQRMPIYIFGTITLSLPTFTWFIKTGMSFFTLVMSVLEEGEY
Chain of HarmOR12 (A0A172QGF5 entry or part of it): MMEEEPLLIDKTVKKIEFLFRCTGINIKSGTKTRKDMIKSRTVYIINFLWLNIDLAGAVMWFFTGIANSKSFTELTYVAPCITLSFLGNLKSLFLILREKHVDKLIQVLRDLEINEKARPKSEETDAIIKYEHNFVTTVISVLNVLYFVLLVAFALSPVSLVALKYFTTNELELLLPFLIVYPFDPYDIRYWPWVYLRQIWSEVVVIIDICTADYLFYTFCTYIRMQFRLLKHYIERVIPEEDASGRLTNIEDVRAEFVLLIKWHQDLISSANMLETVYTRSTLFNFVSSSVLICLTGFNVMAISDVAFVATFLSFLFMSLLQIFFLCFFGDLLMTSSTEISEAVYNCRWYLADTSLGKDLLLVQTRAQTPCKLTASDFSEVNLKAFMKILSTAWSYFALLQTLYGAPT
Chain of HarmOR36 (A0A7T3N0K7 entry or part of it): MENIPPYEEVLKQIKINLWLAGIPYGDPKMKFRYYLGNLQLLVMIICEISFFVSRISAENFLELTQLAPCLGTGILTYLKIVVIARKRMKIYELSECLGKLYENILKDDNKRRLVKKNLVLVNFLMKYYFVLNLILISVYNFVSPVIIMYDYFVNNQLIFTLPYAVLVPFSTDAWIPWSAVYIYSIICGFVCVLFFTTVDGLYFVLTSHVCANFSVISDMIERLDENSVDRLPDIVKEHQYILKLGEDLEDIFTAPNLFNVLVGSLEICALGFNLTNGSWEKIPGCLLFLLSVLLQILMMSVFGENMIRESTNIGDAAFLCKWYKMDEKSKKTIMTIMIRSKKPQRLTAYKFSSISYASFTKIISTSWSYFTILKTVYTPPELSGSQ
Chain of HarmOR31 (A0A7T3N2E9 entry or part of it): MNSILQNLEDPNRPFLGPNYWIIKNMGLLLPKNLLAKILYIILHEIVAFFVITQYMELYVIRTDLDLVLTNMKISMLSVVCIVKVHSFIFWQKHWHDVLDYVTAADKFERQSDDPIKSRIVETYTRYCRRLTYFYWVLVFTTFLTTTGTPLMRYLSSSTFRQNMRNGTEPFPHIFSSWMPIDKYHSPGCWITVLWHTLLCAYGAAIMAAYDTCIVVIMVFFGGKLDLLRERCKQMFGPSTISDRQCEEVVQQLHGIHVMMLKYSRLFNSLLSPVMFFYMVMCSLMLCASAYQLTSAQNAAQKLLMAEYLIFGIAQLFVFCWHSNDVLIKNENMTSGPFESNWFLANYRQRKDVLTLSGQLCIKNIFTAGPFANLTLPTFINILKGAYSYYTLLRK

In the case of `OCCc1ccccc1` [2-Phenylethanol], on HarmOR59 (setting [2]), the EC50 worked out at 2.91 µM. Also, the “ligand tuning of HarmOR42” value on HarmOR42 is “minor ligand”. The “response of the HarmOR repertoire” value in the test with HarmOR repertoire is given as “still responded”. Besides, the “EAG response of HarmOR42 knock-out mutants compared with wild-type moths” value in [1] is “no significant difference”.
As for `CCC(C)(O)CCCC(C)C` (stereo not drawn) [3,7-Dimethyl-3-octanol], the EC50 at HarmOR36 (HarmOR36, read-out: EC50) is 2.91 µM.
For the compound `CCc1ccc(C=O)cc1` [4-Ethylbenzaldehyde], on HarmOR59 (setting [2]), the EC50 worked out at 1190 µM.
For the compound `CC1(C)[C@H]2CC=C(CO)[C@@H]1C2` [(1R)-(-)-Myrtenol], the EC50 at HarmOR52 (HarmOR52, dose response in oocytes, unit M, read-out: EC50) came to 17.1 µM.
With `C=C[C@](C)(O)CCC=C(C)C` [(-)-Linalool], the EC50 on HarmOR36 (HarmOR36, read-out: EC50) amounted to 1.14 µM; on HarmOR12 (setting [3]), 13.7 µM.
In the case of `CCC/C=C/C=O` [(E)-2-Hexen-1-al], at HarmOR59, the EC50 came out at 3780 µM.
As to `CCC/C=C/CO` [(E)-2-Hexen-1-ol], the EC50 was 1190 µM on HarmOR59 and 24 µM on HarmOR52.
Regarding `CCC/C=C/COC(C)=O` [(E)-2-Hexenyl acetate], the EC50 on HarmOR31 was found to be 5.02 µM.
As for `CCC/C=C\CO` [(Z)-2-Hexen-1-ol], at HarmOR52, the EC50 turned out to be 16.5 µM.
As to `CC/C=C\CCOC(C)=O` [(Z)-3-Hexenyl acetate], the EC50 at HarmOR31 was 7.51 µM.
`CC/C=C\CCO` [(Z)-3-hexen-1-ol]: the results for the EC50 at HarmOR59 and on HarmOR52 were 1860 µM and 23.3 µM, respectively.
With `OCc1ccccc1` [Benzyl alcohol], the EC50 at HarmOR52 stood at 6.87 µM.
Take `CC(C)=CCC/C(C)=C/CO` [Geraniol]: the EC50 at HarmOR40 turned out to be 27.8 µM; at HarmOR12, 27.6 µM.
As to `CC(=O)OC/C=C(\C)CCC=C(C)C` [Geranyl acetate], the EC50 came to 5.1 µM at HarmOR23 and 7.69 µM on HarmOR40 (setting [4]).
For `C=CC(C)(O)CCC=C(C)C` (stereo not drawn) [Linalool], the EC50 worked out at 1.16 µM on HarmOR36 (EC50, HarmOR36) and 21.2 µM on HarmOR12. Besides, in the test with HarmOR repertoire, the “response of the HarmOR repertoire” value is “still responded”.
As to `CCCC/C=C\CCCCCCCCCC=O` [Z11-16: Ald], the “ligand tuning of HarmOR42” value on HarmOR42 is given as “not a ligand”. Besides, in test [1], the “EAG response of HarmOR42 knock-out mutants compared with wild-type moths” value is given as “no difference”.
As to `CC/C=C\CC1=C(C)CCC1=O` [cis-Jasmone], the EC50 on HarmOR27 was 78.6 µM.
As to `CC(C)=CCCC(C)CCO` (stereo not drawn) [β-Citronellol], the EC50 at HarmOR36 (HarmOR36, read-out: EC50) was 4.68 µM; at HarmOR12 (setting [3]), 80.1 µM.
On to `CCCCCC1CCCC(=O)O1` (stereo not drawn) [δ-Decanolactone], for which the EC50 at HarmOR31 was found to be 8.16 µM.
In the case of (±)-Citronellal, the EC50 on HarmOR27 came to 333 µM.
Turning to Farnesene, the EC50 at HarmOR23 was 4.79 µM; on HarmOR23 (listed as farnesene), less than 10 µM; on HarmOR40 (HarmOR40, dose response in oocytes, unit M printed in text only, listed as farnesene, read-out: EC50) it was less than 10 µM; on HarmOR40 (setting [4]), 7.9 µM.
